Results from patent publication EP1057829A1, “Novel compounds and pharmaceutical compositions containing the same” (The Jordanian Pharmaceutical Manufacturing and Medical …, priority 1999, dated 2000).

What was measured:
Type in all cases: in vivo
[1] = test system: male rats; assay: Penile erection of male rats after oral administration, observed for 2 h; settings: for ED50: Rattus norvegicus, 2 h, erectile response, ED50 values significantly different with a 95% confidence interval, read-out: Calculated ED50; for responding rats # / responding rats %: 10 rats tested, penile erection monitored during 2 h
Procedure: The purpose of this study was to compare the biological activity of compound 7a with that of sildenafil. In particular, the respective ED50-value (ED=effective dose), erection episodes and penile erection indices of said compounds in the treatment of male rats were determined. The penile erection index is an established means of determining the erection promoting properties of a substance (see e.g. Ang, H.H., Sim, M.K., Pharm. Sci., 3, 117-119 (1997) and references cited therein).
In these experiments, the compounds 7a and sildenafil were administered to male rats orally. The doses used for both drugs were 0.0781, 0.1562, 0.3125 and 0.625 mg/kg body weight. Sildenafil was dissolved in distilled water, whereas 7a was dissolved in 1% HCl solution (aq). Control animals were administered with the vehicles only, i.e. distilled water or the 1% HCl solution. During the experiments, the rats were placed in glass cages for observation and had access to food and water. During 2 h after administration of the investigated compounds, the penile erection of the rats was monitored.

[2] = Preliminary toxicity studies in rats; settings: rat, in vivo, read-out: tolerated dose without any detrimental effects
Procedure: (§1) Moreover, according to preliminary toxicity studies in rats, the compound 7a is tolerated up to a dose of about […] body weight without any detrimental effects. […] Thus, high doses of 7a provide a particularly efficient means for treatment of erectile dysfunction.

[3] = test system: rats; assay: Preliminary toxicity studies in rats
Procedure: as §1

For `CCCc1nn(C)c2c(=O)[nH]c(-c3cc(S(=O)(=O)N4CCN(C)CC4)cc4c3OCC4)nc12` [Compound 7a, 5-[2,3-dihydro-5-(4-methylpiperazin-1-ylsulfonyl)-7-benzofuryl]-1-methyl-3-propyl-6,7-dihydro-1H-pyrazolo[4,3-d]pyrimidin-7-one], the ED50 ([1]; male rats) was 0.247 mg/kg, the “responding rats #” value ([1]; dose 0.0781 mg/kg) was 3 and the responding rats % ([1]; dose 0.0781 mg/kg) was 30%. The “responding rats #” value ([1]; dose 0.1562 mg/kg) was 4, the responding rats % ([1]; dose 0.1562 mg/kg) was 40% and the “responding rats #” value ([1]; dose 0.3125 mg/kg) was 4. For the same compound, the responding rats % ([1]; dose 0.3125 mg/kg) was 40%, the “responding rats #” value ([1]; dose 0.6250 mg/kg) was 8 and the responding rats % ([1]; dose 0.6250 mg/kg) was 80%. For the same compound, the “total number of observed erection episodes” value ([1]; male rats, 0.0781-0.625 mg/kg, comparison with sildenafil (Fig. 1)) was “superior to sildenafil, especially at higher doses”, the “calculated penile erection indices” value ([1]; male rats, 0.0781-0.625 mg/kg, comparison with sildenafil (Fig. 2)) was “superior to sildenafil, especially at higher doses” and the NOAEL [2] was about 0.35 mg/kg. The toxicity and side-effects [3] was “completely nontoxic and free from undesirable side-effects”.

With `CCCc1nn(C)c2c(=O)[nH]c(-c3cc(S(=O)(=O)N4CCN(C)CC4)ccc3OCC)nc12` [Sildenafil, sildenafil, reference compound] the ED50 ([1]; male rats) was 0.284 mg/kg, the “responding rats #” value ([1]; dose 0.0781 mg/kg) was 3 and the responding rats % ([1]; dose 0.0781 mg/kg) was 30%. For the same compound, the “responding rats #” value ([1]; dose 0.1562 mg/kg) was 3, the responding rats % ([1]; dose 0.1562 mg/kg) was 30% and the “responding rats #” value ([1]; dose 0.3125 mg/kg) was 5. For the same compound, the responding rats % ([1]; dose 0.3125 mg/kg) was 50%, the “responding rats #” value ([1]; dose 0.6250 mg/kg) was 7 and the responding rats % ([1]; dose 0.6250 mg/kg) was 70%.
